One experiment deals with Escherichia coli. The experiment in a line: Minimum inhibitory concentration, series dilution test. The format is cell-based. The method, then: (§1) The minimum inhibitory concentration (MIC) of eugenol acetate was determined in the series dilution test against various bacteria.
The test system of a further experiment is Fusobacterium nucleatum. The description is as above. The format is cell-based. Here is the method:
as §1

The test system of another experiment is Porphyromonas gingivalis. Described as above. The format is cell-based. Here is the method: as §1
The next experiment concerns Prevotella intermedia. The description is as above. The format is cell-based. Here is the method: as §1
The next experiment has as its system Pseudomonas aeruginosa. Described as above. In kind it is cell-based. The method, then: as §1
The test system of the next experiment is Staphylococcus aureus. Described as above. In kind it is cell-based. The method, then: as §1
The next experiment relates to Streptococcus mutans. The experiment is described as above. In kind it is cell-based. The method, then:
as §1

The test system of experiment [1] is total number of germs in the oral saliva samples. Nature of the experiment: Total number of germs in oral saliva samples. Particulars: 1,000 ppm. The format is cell-based.
In experiment [2] the test system is liquid medium inoculated with fresh morning saliva. The experiment in a line: In vitro test for reduction of bad breath (inoculated medium smelled by a panel of testers).

This note sets out measurements from patent US20080085246A1, “Use of Eugenol Acetate as an Agent Against Bad Breath” (SYMRISE GMBH & CO. KG, priority 2004, published 2008).

A value given as a limit tells only on which side of the number the result lay.

By MIC is commonly meant the lowest concentration that inhibits growth of the organism.

`C=CCc1ccc(OC(C)=O)c(OC)c1` [eugenol acetate, 4-allyl-2-methoxyphenyl acetate]: the MIC with Escherichia coli was over 1000 µg/mL; against Fusobacterium nucleatum, 500 µg/mL; against Porphyromonas gingivalis it was 1000 µg/mL; against Prevotella intermedia, 500 µg/mL; against Pseudomonas aeruginosa it was over 1000 µg/mL; in the experiment with Staphylococcus aureus, over 1000 µg/mL. Besides, the minimal inhibitory concentration (MIC) with Streptococcus mutans was over 1000 µg/mL. In addition, the Type result in the experiment on Escherichia coli was “no action up to 1,000 ppm”; in the experiment with Fusobacterium nucleatum (500 ppm) it was “bactericidal action”; in the experiment with Prevotella intermedia (500 ppm), “bactericidal action”; in the experiment on Pseudomonas aeruginosa, “no action up to 1,000 ppm”; in the experiment on Staphylococcus aureus, “no action up to 1,000 ppm”; in the experiment on Streptococcus mutans, “no action up to 1,000 ppm”. In addition, the “reduction in respect of the total number of germs” value in experiment [1] is given as “no significant reduction”. Besides, the “smell after the incubation time” value is “no smell” in experiment [2] (0.01% added to inoculated samples, 37 °C for some days) and “a changed intrinsic smell or a mixed smell was perceptible in some cases” in [2] (significantly lower concentrations than 0.01%). Further, the “smell at sensory evaluation” value in experiment [2] (0.05% added to the inoculated medium only one hour before the sensory evaluation) was “unpleasant mixed smell of bad breath and a weak eugenol acetate note”. In [2] (inoculated samples, no smell after incubation), this compound had a minimum active concentration of 0.01%.
